For experiment [1], the target named is T1, hNAGS (human NAGS) (Homo sapiens, UniProt Q8N159).
T1 construct: appears to be tetramer
T1 sequence (Q8N159 51-534): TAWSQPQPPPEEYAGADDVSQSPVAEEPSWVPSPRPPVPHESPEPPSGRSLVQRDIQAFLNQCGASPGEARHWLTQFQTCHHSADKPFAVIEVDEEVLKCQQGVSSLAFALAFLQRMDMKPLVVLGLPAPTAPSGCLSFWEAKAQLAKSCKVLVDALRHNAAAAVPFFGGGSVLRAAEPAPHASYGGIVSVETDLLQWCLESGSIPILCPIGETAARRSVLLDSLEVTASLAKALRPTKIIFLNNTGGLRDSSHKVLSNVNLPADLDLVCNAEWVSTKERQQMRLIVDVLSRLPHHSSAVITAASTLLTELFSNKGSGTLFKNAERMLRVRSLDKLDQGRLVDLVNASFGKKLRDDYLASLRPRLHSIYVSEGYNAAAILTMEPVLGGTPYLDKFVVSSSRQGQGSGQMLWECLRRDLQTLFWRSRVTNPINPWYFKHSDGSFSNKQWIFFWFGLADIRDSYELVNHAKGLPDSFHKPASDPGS
Description: NAGS specific activity. It is filed as biochemical.

Experiment [2] has as its target T2, mNAGS (mouse NAGS) (Mus musculus, UniProt Q8R4H7).
T2 construct: appears to be tetramer
T2 sequence (Q8R4H7 51-527): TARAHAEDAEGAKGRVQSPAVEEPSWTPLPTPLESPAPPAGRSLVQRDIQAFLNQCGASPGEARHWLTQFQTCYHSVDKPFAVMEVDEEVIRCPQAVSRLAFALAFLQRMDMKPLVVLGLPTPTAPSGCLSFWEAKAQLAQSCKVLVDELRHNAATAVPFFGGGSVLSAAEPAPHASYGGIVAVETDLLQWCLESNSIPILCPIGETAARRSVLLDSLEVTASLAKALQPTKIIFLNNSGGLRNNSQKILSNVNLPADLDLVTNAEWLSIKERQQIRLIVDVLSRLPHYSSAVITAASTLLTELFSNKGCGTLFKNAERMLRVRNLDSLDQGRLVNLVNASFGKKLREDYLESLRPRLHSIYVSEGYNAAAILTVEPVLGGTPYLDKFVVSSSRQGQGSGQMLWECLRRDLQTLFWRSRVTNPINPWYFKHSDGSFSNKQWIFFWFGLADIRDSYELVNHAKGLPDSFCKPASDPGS
Description: NAGS specific activity. It is filed as biochemical.

For `CC(=O)SCCNC(=O)CCNC(=O)[C@H](O)C(C)(C)COP(=O)(O)OP(=O)(O)OC[C@H]1O[C@@H](n2cnc3c(N)ncnc32)[C@H](O)[C@@H]1OP(=O)(O)O` [acetyl coenzyme A], the NAGS specific activity entry was “catalyzes formation of N-acetylglutamate (NAG) from glutamate and acetyl coenzyme A” in experiment [1] (co-substrate glutamate); “catalyzes formation of N-acetylglutamate (NAG) from glutamate and acetyl coenzyme A” in experiment [2] (co-substrate glutamate).
With `N[C@@H](CCC(=O)O)C(=O)O` [glutamate], the NAGS specific activity entry was “catalyzes formation of N-acetylglutamate (NAG) from glutamate and acetyl coenzyme A” in experiment [1] (co-substrate acetyl coenzyme A); “catalyzes formation of N-acetylglutamate (NAG) from glutamate and acetyl coenzyme A” in experiment [2] (co-substrate acetyl coenzyme A).

The record behind these values is paper PMC7878489, “Gene delivery corrects N-acetylglutamate synthase deficiency and enables insights in the physiological impact of L-arginine activation of N-acetylglutamate synthase” (Scientific Reports, 2021).
